In patent publication US4629491A, “Oxidized sulfur derivatives of diaminophosphinyl compounds as urease inhibitors and urease inhibited urea based fertilizer compositions” (Allied Corporation, priority 1983, dated 1986):

Test system: soil urease
Experiment: Soil urease inhibition efficacy test (urea remaining after incubation in soil)
Format: biochemical
Conditions: 40 micrograms per gram soil, incubated at 25° C. for three days, run in triplicate
Description: Efficacy tests were conducted to evaluate the efficacy of certain representative oxidized sulfur derivatives of diaminophosphinyl compounds as urease inhibitors. The inhibition tests were run in New York (Cazenovia Silt loam, pH 7.3) and Wisconsin (Plano silt loam pH 5.3) soils. Evaluations (run in triplicate) consisted of applying 800 micrograms of the test compound in 5 mL of water and 42.8 mg of urea in 1 mL of water to 20 g of air-dry soil in a glass bottle. The bottle was capped with perforated aluminum foil and incubated at 25° C. for three days prior to extraction with 100 mL of a 2M potassium chloride solution containing 0.5 mg of phenylmercuric acetate. The extracts were then analyzed for remaining urea using an autoanalyzer. Percent inhibition was calculated as [formula] where A is urea recovered from unincubated sample (urea added to soil and immediately extracted); B is urea recovered from inhibited sample; and C is urea recovered from the control (uninhibited sample).

[1] = Cazenovia silt loam (New York) pH 7.3
[2] = Wisconsin (Plano silt loam) pH 5.3

Row | SMILES | % Inhibition [1] | % Inhibition [2]
1 | NP(N)(=O)NS(=O)(=O)c1ccccc1 [N-(Diaminophosphinyl)benzenesulfonamide] | 91% | 23%
2 | Cc1ccc(S(=O)(=O)NP(N)(N)=O)cc1 [N-(Diaminophosphinyl)-p-toluene-sulfonamide] | 86% | 51%
